# Where two headings read alike, the source gives them in different places.
# Experiments:
# Experiment in all cases: biochemical
# Design in all cases: KINOMEscan scanMAX competition binding, DNA-tagged kinases, qPCR read-out, percent control at 300 nM
# CSNK1E = CSNK1E (Homo sapiens, UniProt P49674)
# FLT3 = target: T1, FLT3 (Homo sapiens, UniProt P36888)
# T1 sequence (P36888 1-993): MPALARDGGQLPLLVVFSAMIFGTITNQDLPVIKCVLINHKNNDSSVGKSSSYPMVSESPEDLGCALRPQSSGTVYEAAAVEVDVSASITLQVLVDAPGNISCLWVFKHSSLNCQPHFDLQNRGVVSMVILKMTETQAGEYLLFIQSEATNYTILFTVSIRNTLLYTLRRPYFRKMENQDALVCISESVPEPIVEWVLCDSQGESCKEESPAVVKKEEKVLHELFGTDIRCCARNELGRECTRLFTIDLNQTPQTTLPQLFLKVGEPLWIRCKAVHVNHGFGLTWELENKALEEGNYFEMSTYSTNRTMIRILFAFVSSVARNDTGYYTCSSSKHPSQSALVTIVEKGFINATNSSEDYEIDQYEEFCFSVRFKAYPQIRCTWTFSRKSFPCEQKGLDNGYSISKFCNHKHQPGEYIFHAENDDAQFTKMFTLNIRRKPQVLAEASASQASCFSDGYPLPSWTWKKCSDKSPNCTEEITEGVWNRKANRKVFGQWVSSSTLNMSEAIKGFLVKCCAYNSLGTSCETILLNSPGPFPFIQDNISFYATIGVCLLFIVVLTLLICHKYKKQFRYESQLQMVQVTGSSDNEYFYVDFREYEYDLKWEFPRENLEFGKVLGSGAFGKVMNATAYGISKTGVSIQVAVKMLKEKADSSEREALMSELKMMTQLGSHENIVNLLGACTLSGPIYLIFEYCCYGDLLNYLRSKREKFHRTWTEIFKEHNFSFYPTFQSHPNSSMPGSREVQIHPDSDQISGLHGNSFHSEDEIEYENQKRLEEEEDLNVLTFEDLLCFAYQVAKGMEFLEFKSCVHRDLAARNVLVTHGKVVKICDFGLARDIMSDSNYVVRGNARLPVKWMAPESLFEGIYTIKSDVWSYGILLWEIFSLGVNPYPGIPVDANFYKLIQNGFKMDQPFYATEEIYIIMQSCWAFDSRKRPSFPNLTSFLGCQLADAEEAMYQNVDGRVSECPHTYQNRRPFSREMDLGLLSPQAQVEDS
# CSK = CSK (Homo sapiens, UniProt P41240)
# Chain of CSK (P41240 whole entry): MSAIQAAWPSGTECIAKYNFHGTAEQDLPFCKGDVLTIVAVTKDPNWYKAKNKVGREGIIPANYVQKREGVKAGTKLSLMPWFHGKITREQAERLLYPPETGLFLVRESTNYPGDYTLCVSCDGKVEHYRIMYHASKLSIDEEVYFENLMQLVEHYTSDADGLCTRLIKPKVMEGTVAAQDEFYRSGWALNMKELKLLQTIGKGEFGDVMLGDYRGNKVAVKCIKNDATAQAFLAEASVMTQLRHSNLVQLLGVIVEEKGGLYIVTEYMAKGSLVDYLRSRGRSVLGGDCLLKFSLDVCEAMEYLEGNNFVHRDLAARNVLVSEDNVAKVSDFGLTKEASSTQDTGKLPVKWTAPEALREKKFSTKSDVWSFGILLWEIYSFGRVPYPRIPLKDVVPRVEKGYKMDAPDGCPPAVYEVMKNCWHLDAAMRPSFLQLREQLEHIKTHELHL
# [1] = target: EGFR(L747-S752del, P753S) (Homo sapiens, UniProt P00533, DEL747-752/P753S)
# Chain of EGFR(L747-S752del, P753S) (P00533 with tags, fused parts or gaps DEL747-752/P753S): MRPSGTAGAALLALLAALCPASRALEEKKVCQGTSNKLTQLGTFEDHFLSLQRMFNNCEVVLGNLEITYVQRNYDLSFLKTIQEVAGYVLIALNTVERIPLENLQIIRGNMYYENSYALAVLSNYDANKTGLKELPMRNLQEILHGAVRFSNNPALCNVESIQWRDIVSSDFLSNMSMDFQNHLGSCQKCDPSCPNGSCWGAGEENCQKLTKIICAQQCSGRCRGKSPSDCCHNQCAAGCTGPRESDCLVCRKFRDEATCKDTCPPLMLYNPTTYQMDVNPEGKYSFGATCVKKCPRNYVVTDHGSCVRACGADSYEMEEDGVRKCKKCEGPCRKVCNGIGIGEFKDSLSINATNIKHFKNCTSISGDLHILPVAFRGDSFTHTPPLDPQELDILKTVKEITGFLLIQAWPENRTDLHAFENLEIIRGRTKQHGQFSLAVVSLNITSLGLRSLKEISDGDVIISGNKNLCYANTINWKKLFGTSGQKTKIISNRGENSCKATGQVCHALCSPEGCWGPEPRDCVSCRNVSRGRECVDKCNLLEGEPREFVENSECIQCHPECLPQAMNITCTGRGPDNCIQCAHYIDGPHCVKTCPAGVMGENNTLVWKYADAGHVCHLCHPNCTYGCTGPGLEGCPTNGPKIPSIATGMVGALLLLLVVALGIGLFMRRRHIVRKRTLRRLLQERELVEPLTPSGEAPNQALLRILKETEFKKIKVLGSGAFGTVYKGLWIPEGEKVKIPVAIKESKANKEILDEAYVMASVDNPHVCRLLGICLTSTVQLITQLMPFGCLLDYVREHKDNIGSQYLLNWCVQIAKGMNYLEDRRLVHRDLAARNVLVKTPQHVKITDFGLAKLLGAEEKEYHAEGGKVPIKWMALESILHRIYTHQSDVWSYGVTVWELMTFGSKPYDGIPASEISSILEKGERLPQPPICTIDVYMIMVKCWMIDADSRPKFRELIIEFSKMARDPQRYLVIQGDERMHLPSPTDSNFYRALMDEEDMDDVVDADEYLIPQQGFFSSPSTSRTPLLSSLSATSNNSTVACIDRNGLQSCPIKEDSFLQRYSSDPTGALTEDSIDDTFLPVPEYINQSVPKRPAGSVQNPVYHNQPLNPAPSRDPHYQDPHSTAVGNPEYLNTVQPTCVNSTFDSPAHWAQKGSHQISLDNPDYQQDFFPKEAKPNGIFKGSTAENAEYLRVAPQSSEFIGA
# CDK2 = CDK2 (Homo sapiens, UniProt P24941)
# IRAK1 = IRAK1 (Homo sapiens, UniProt P51617)
# Chain of IRAK1 (P51617 whole entry): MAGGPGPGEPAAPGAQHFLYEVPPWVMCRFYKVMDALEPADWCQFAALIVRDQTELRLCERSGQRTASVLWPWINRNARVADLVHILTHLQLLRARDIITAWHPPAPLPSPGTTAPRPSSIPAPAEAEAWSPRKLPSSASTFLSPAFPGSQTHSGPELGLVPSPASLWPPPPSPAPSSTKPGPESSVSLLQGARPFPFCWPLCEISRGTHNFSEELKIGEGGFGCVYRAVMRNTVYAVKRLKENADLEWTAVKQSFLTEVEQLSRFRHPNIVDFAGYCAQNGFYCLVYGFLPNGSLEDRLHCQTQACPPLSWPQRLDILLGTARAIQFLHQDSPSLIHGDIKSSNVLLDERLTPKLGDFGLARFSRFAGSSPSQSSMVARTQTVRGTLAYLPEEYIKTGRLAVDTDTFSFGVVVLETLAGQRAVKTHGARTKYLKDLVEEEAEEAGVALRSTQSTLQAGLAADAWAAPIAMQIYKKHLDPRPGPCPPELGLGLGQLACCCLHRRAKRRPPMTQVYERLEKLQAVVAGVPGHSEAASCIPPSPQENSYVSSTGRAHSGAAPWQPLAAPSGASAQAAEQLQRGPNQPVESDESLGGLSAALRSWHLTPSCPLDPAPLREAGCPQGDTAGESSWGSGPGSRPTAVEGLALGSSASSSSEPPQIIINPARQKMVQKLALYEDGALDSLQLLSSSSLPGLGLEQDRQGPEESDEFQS
# LATS1 = target: T2, LATS1 (Homo sapiens, UniProt O95835)
# T2 sequence (O95835 1-1130): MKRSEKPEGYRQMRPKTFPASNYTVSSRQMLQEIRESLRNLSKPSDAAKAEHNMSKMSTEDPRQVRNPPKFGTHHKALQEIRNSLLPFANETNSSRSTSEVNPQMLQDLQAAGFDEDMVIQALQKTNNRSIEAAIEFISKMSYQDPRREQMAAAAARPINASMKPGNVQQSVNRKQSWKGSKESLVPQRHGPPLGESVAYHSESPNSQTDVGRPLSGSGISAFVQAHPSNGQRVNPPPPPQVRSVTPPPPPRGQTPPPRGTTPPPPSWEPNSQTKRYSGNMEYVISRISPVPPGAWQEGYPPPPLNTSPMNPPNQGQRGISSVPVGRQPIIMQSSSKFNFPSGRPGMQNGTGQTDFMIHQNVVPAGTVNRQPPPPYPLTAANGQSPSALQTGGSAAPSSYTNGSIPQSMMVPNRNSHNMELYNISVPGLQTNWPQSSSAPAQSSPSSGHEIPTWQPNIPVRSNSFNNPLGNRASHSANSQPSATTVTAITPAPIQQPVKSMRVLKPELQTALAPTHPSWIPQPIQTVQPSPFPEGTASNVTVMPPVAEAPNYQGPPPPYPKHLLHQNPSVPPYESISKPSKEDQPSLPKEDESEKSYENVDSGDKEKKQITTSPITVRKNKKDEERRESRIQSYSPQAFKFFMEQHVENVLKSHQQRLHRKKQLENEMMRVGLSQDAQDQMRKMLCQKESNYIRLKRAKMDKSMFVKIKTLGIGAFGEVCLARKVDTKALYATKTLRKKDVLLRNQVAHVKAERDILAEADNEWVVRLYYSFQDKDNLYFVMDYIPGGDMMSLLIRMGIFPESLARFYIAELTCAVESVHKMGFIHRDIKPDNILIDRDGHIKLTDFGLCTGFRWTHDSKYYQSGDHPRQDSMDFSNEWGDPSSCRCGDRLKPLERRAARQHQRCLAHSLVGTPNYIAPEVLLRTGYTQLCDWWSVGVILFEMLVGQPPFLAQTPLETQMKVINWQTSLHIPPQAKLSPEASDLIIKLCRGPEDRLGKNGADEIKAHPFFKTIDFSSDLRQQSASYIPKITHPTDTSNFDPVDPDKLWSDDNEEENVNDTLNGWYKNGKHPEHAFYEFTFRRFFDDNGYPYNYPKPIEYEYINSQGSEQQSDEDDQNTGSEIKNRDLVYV
# CDKL3 = CDKL3 (Homo sapiens, UniProt Q8IVW4)
# Chain of CDKL3 (Q8IVW4 whole entry): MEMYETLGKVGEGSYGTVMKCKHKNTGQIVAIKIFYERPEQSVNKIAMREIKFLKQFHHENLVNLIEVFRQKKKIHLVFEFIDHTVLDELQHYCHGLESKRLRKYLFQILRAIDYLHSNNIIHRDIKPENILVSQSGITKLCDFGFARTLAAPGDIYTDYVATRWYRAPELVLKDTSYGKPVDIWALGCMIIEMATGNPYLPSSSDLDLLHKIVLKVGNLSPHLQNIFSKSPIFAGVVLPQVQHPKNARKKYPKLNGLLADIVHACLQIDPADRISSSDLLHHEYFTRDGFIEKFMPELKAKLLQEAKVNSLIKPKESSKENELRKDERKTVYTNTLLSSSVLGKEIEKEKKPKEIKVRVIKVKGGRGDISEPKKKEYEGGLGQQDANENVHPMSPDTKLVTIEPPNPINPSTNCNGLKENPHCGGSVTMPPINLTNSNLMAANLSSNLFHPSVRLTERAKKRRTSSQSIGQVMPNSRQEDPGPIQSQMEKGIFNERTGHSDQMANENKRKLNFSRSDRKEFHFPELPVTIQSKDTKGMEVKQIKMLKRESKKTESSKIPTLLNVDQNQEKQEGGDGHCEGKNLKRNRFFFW
# [2] = read-out: Percent control / Tirabrutinib
# [3] = read-out: Percent control / Ibrutinib
# [4] = read-out: Percent control / Zanubrutinib
# [5] = read-out: Percent control / Acalabrutinib
# Chain of CSNK1E (P49674 whole entry): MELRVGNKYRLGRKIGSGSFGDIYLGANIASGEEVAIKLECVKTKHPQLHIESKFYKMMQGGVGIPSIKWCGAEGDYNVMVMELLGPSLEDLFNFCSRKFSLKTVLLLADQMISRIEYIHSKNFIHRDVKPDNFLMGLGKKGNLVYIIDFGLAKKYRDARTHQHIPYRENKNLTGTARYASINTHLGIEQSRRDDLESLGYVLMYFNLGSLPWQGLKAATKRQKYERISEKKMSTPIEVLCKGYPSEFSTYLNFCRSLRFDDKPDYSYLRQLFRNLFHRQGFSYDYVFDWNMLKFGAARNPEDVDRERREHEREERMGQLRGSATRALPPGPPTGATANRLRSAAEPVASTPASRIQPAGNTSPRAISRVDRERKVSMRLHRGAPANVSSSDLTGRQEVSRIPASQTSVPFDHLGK
smiles,measurement,setting,value
CC#CC(=O)N1CC[C@@H](n2c(=O)n(-c3ccc(Oc4ccccc4)cc3)c3c(N)ncnc32)C1 [Tirabrutinib],remaining binding at 0.3 µM,CSNK1E; [2],95%
same,remaining binding at 0.3 µM,FLT3; [2],98%
same,remaining binding at 0.3 µM,CSK; [2],47%
same,remaining binding at 0.3 µM,[1]; [2],88%
same,remaining binding at 0.3 µM,CDK2; [2],82%
C=CC(=O)N1CCC[C@@H](n2nc(-c3ccc(Oc4ccccc4)cc3)c3c(N)ncnc32)C1 [Ibrutinib],remaining binding at 0.3 µM,CSNK1E; [3],79%
same,remaining binding at 0.3 µM,IRAK1; [3],89%
same,remaining binding at 0.3 µM,LATS1; [3],83%
same,remaining binding at 0.3 µM,FLT3; [3],47%
same,remaining binding at 0.3 µM,CSK; [3],1.4%
same,remaining binding at 0.3 µM,CDKL3; [3],98%
same,remaining binding at 0.3 µM,[1]; [3],12%
C=CC(=O)N1CCC([C@@H]2CCNc3c(C(N)=O)c(-c4ccc(Oc5ccccc5)cc4)nn32)CC1 [Zanubrutinib],remaining binding at 0.3 µM,IRAK1; [4],100%
same,remaining binding at 0.3 µM,LATS1; [4],72%
same,remaining binding at 0.3 µM,FLT3; [4],90%
same,remaining binding at 0.3 µM,CDKL3; [4],92%
same,remaining binding at 0.3 µM,CDK2; [4],99%
CC#CC(=O)N1CCC[C@H]1c1nc(-c2ccc(C(=O)Nc3ccccn3)cc2)c2c(N)nccn12 [Acalabrutinib],remaining binding at 0.3 µM,CSNK1E; [5],89%
same,remaining binding at 0.3 µM,IRAK1; [5],90%
same,remaining binding at 0.3 µM,LATS1; [5],79%
same,remaining binding at 0.3 µM,FLT3; [5],86%
same,remaining binding at 0.3 µM,CSK; [5],85%
same,remaining binding at 0.3 µM,CDKL3; [5],78%
same,remaining binding at 0.3 µM,[1]; [5],99%
same,remaining binding at 0.3 µM,CDK2; [5],86%

# Reference: PMC10004634 (PLOS ONE, 2023)
